Test results reported in ChEMBL document CHEMBL1201862, “PubChem BioAssay data set” (2004).
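48-hour exposure; five concentrations; linearly interpolated endpoints. GI50 marks 50% less growth.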 Active and inactive are the calls of the source. Rule as the data show it: active = GI50 up to about 1.1 µM and inactive = higher.

Legend:
Experiment in all cases: NCI tumour cell line growth inhibition, 48 h
OVCAR-4 = system: OVCAR-4
SF-539 = system: SF-539
Malme-3M = system: Malme-3M
SK-OV-3 = system: SK-OV-3
RXF 393 = system: RXF 393
SR = system: SR
LOX IMVI = system: LOX IMVI
CAKI-1 = system: CAKI-1
MCF7 = system: MCF7
HL-60 = system: HL-60
M14 = system: M14
SNB-75 = system: SNB-75
CCRF-CEM = system: CCRF-CEM
HT-29 = system: HT-29
OVCAR-3 = system: OVCAR-3
SK-MEL-5 = system: SK-MEL-5
K562 = system: K562
T47D = system: T47D
DU-145 = system: DU-145
U-251 = system: U-251
COLO 205 = system: COLO 205
A549 = system: A549
NCI-H460 = system: NCI-H460
NCI/ADR-RES = system: NCI/ADR-RES
ACHN = system: ACHN
SF-295 = system: SF-295
PC-3 = system: PC-3
SK-MEL-28 = system: SK-MEL-28
IGROV-1 = system: IGROV-1
UO-31 = system: UO-31
HCT-116 = system: HCT-116
MOLT-4 = system: MOLT-4
SN12C = system: SN12C
MDA-N = system: MDA-N
A498 = system: A498
HCC 2998 = system: HCC 2998
SW-620 = system: SW-620
HOP-92 = system: HOP-92
BT-549 = system: BT-549
UACC-62 = system: UACC-62
SK-MEL-2 = system: SK-MEL-2
MDA-MB-435 = system: MDA-MB-435
HOP-62 = system: HOP-62
Hs-578T = system: Hs-578T
UACC-257 = system: UACC-257
RPMI-8226 = system: RPMI-8226
KM12 = system: KM12
SNB-19 = system: SNB-19
OVCAR-8 = system: OVCAR-8
NCI-H23 = system: NCI-H23
786-0 = system: 786-0
EKVX = system: EKVX
SF-268 = system: SF-268
HCT-15 = system: HCT-15
NCI-H522 = system: NCI-H522
TK-10 = system: TK-10
OVCAR-5 = system: OVCAR-5
MDA-MB-231 = system: MDA-MB-231
NCI-H226 = system: NCI-H226

Question: `CN(C)c1ncnc2c1ncn2C1C=CC(COS(N)(=O)=O)C1` (stereo not given) was tested. Which GI50 (OVCAR-4) did it give?
Answer: > 100 µM (inactive)

Question: And the GI50 (SF-539)?
Answer: > 100 µM (inactive)

Question: And the GI50 (Malme-3M)?
Answer: > 100 µM (inactive)

Question: What about the GI50 (SK-OV-3) of the same molecule?
Answer: > 100 µM (inactive)

Question: What about the GI50 (RXF 393) of the same molecule?
Answer: 66.1 µM (inactive)

Question: What about the GI50 (SR) of the same molecule?
Answer: > 100 µM (inactive)

Question: What about the GI50 (LOX IMVI) of the same molecule?
Answer: 96.2 µM (inactive)

Question: And the GI50 (CAKI-1)?
Answer: > 100 µM (inactive)

Question: And the GI50 (MCF7)?
Answer: > 100 µM (inactive)

Question: And the GI50 (HL-60)?
Answer: > 100 µM (inactive)

Question: And the GI50 (M14)?
Answer: > 100 µM (inactive)

Question: What about the GI50 (SNB-75) of the same molecule?
Answer: > 100 µM (inactive)

Question: What about the GI50 (CCRF-CEM) of the same molecule?
Answer: > 100 µM (inactive)

Question: And the GI50 (HT-29)?
Answer: > 100 µM (inactive)

Question: What about the GI50 (OVCAR-3) of the same molecule?
Answer: > 100 µM (inactive)

Question: And the GI50 (SK-MEL-5)?
Answer: > 100 µM (inactive)

Question: And the GI50 (K562)?
Answer: 82.4 µM (inactive)

Question: And the GI50 (T47D)?
Answer: > 100 µM (inactive)

Question: And the GI50 (DU-145)?
Answer: > 100 µM (inactive)

Question: What about the GI50 (U-251) of the same molecule?
Answer: > 100 µM (inactive)

Question: And the GI50 (COLO 205)?
Answer: > 100 µM (inactive)

Question: And the GI50 (A549)?
Answer: > 100 µM (inactive)

Question: What about the GI50 (NCI-H460) of the same molecule?
Answer: > 100 µM (inactive)

Question: What about the GI50 (NCI/ADR-RES) of the same molecule?
Answer: > 100 µM (inactive)

Question: And the GI50 (ACHN)?
Answer: > 100 µM (inactive)

Question: What about the GI50 (SF-295) of the same molecule?
Answer: > 100 µM (inactive)

Question: And the GI50 (PC-3)?
Answer: 60.7 µM (inactive)

Question: What about the GI50 (SK-MEL-28) of the same molecule?
Answer: > 100 µM (inactive)

Question: What about the GI50 (IGROV-1) of the same molecule?
Answer: > 100 µM (inactive)

Question: And the GI50 (UO-31)?
Answer: > 100 µM (inactive)

Question: What about the GI50 (HCT-116) of the same molecule?
Answer: > 100 µM (inactive)

Question: And the GI50 (MOLT-4)?
Answer: > 100 µM (inactive)

Question: What about the GI50 (SN12C) of the same molecule?
Answer: > 100 µM (inactive)

Question: What about the GI50 (MDA-N) of the same molecule?
Answer: > 100 µM (inactive)

Question: And the GI50 (A498)?
Answer: > 100 µM (inactive)

Question: What about the GI50 (HCC 2998) of the same molecule?
Answer: > 100 µM (inactive)

Question: What about the GI50 (SW-620) of the same molecule?
Answer: > 100 µM (inactive)

Question: What about the GI50 (HOP-92) of the same molecule?
Answer: > 100 µM (inactive)

Question: And the GI50 (BT-549)?
Answer: > 100 µM (inactive)

Question: And the GI50 (UACC-62)?
Answer: > 100 µM (inactive)

Question: What about the GI50 (SK-MEL-2) of the same molecule?
Answer: > 100 µM (inactive)

Question: And the GI50 (MDA-MB-435)?
Answer: > 100 µM (inactive)

Question: And the GI50 (HOP-62)?
Answer: > 100 µM (inactive)

Question: What about the GI50 (Hs-578T) of the same molecule?
Answer: 44.5 µM (inactive)

Question: What about the GI50 (UACC-257) of the same molecule?
Answer: > 100 µM (inactive)

Question: What about the GI50 (RPMI-8226) of the same molecule?
Answer: > 100 µM (inactive)

Question: And the GI50 (KM12)?
Answer: > 100 µM (inactive)

Question: What about the GI50 (SNB-19) of the same molecule?
Answer: > 100 µM (inactive)

Question: What about the GI50 (OVCAR-8) of the same molecule?
Answer: 83.6 µM (inactive)

Question: And the GI50 (NCI-H23)?
Answer: 80.9 µM (inactive)

Question: What about the GI50 (786-0) of the same molecule?
Answer: > 100 µM (inactive)

Question: What about the GI50 (EKVX) of the same molecule?
Answer: > 100 µM (inactive)

Question: What about the GI50 (SF-268) of the same molecule?
Answer: > 100 µM (inactive)

Question: And the GI50 (HCT-15)?
Answer: > 100 µM

Question: What about the GI50 (NCI-H522) of the same molecule?
Answer: 47.2 µM (inactive)

Question: With `CN(C)N1C(=C(C#N)C#N)C(c2ccccc2)CC1C#N` (stereo not given) as the molecule, how does the GI50 (TK-10) read?
Answer: > 100 µM (inactive)

Question: What about the GI50 (SF-539) of the same molecule?
Answer: > 100 µM (inactive)

Question: And the GI50 (Malme-3M)?
Answer: > 100 µM (inactive)

Question: And the GI50 (SK-OV-3)?
Answer: > 100 µM (inactive)

Question: What about the GI50 (RXF 393) of the same molecule?
Answer: > 100 µM (inactive)

Question: What about the GI50 (SR) of the same molecule?
Answer: > 10 µM (inactive)

Question: What about the GI50 (LOX IMVI) of the same molecule?
Answer: > 100 µM (inactive)

Question: What about the GI50 (CAKI-1) of the same molecule?
Answer: > 100 µM (inactive)

Question: And the GI50 (MCF7)?
Answer: > 100 µM (inactive)

Question: What about the GI50 (HL-60) of the same molecule?
Answer: > 100 µM (inactive)

Question: What about the GI50 (M14) of the same molecule?
Answer: > 100 µM (inactive)

Question: And the GI50 (SNB-75)?
Answer: 57.8 µM (inactive)

Question: And the GI50 (CCRF-CEM)?
Answer: > 100 µM (inactive)

Question: What about the GI50 (HT-29) of the same molecule?
Answer: > 100 µM (inactive)

Question: What about the GI50 (SK-MEL-5) of the same molecule?
Answer: > 100 µM (inactive)

Question: And the GI50 (K562)?
Answer: > 100 µM (inactive)

Question: What about the GI50 (T47D) of the same molecule?
Answer: > 100 µM (inactive)

Question: And the GI50 (DU-145)?
Answer: > 100 µM (inactive)

Question: What about the GI50 (U-251) of the same molecule?
Answer: > 100 µM (inactive)

Question: And the GI50 (COLO 205)?
Answer: > 100 µM (inactive)

Question: What about the GI50 (A549) of the same molecule?
Answer: > 100 µM (inactive)

Question: What about the GI50 (NCI/ADR-RES) of the same molecule?
Answer: > 100 µM (inactive)

Question: What about the GI50 (ACHN) of the same molecule?
Answer: > 100 µM (inactive)

Question: What about the GI50 (SF-295) of the same molecule?
Answer: > 100 µM (inactive)

Question: And the GI50 (PC-3)?
Answer: > 100 µM (inactive)

Question: What about the GI50 (SK-MEL-28) of the same molecule?
Answer: > 100 µM (inactive)

Question: What about the GI50 (IGROV-1) of the same molecule?
Answer: > 100 µM (inactive)

Question: And the GI50 (UO-31)?
Answer: > 100 µM (inactive)

Question: And the GI50 (HCT-116)?
Answer: > 100 µM (inactive)

Question: What about the GI50 (MOLT-4) of the same molecule?
Answer: > 100 µM (inactive)

Question: What about the GI50 (SN12C) of the same molecule?
Answer: > 100 µM (inactive)

Question: And the GI50 (MDA-N)?
Answer: > 100 µM (inactive)

Question: And the GI50 (A498)?
Answer: > 100 µM (inactive)

Question: What about the GI50 (HCC 2998) of the same molecule?
Answer: > 100 µM (inactive)

Question: What about the GI50 (SW-620) of the same molecule?
Answer: > 100 µM (inactive)

Question: And the GI50 (OVCAR-5)?
Answer: > 100 µM (inactive)

Question: And the GI50 (HOP-92)?
Answer: > 100 µM (inactive)

Question: And the GI50 (UACC-62)?
Answer: > 100 µM (inactive)

Question: And the GI50 (MDA-MB-231)?
Answer: > 100 µM (inactive)

Question: And the GI50 (SK-MEL-2)?
Answer: > 100 µM (inactive)

Question: What about the GI50 (MDA-MB-435) of the same molecule?
Answer: > 100 µM (inactive)

Question: And the GI50 (NCI-H226)?
Answer: > 100 µM (inactive)

Question: And the GI50 (HOP-62)?
Answer: > 100 µM (inactive)

Question: And the GI50 (Hs-578T)?
Answer: > 100 µM (inactive)

Question: And the GI50 (UACC-257)?
Answer: > 100 µM (inactive)

Question: And the GI50 (RPMI-8226)?
Answer: > 100 µM (inactive)

Question: What about the GI50 (KM12) of the same molecule?
Answer: > 100 µM (inactive)

Question: What about the GI50 (SNB-19) of the same molecule?
Answer: > 100 µM (inactive)

Question: And the GI50 (OVCAR-8)?
Answer: > 100 µM (inactive)

Question: What about the GI50 (NCI-H23) of the same molecule?
Answer: > 100 µM (inactive)

Question: And the GI50 (786-0)?
Answer: > 100 µM (inactive)

Question: What about the GI50 (EKVX) of the same molecule?
Answer: > 100 µM (inactive)

Question: And the GI50 (SF-268)?
Answer: > 100 µM (inactive)

Question: And the GI50 (HCT-15)?
Answer: > 100 µM

Question: What about the GI50 (NCI-H522) of the same molecule?
Answer: > 100 µM (inactive)
